Data taken from patent publication US7592326B2, “Method for stimulating the immune, inflammatory or neuroprotective response” (priority 2004, dated 2009).

Key:
basophils = assay: SOCS expression in basophils (real-time PCR); type: cell-based, human
Method: Whether or not cyclic dinucleotides affected induction of SOCS (Suppresser Of Cytokine Synthesis) expression in basophils treated with CDN's was then tested. […] Cells were treated for 18 h, total RNA isolated, and RT-PCR performed for SOCS-1, SOCS-3, and the HPRT housekeeping gene. The fact that cGpGp also induces SOCS-1 may explain why some inhibition of IL-3-induced IL-13 secretion is observed with this cyclic dinucleotide analog. […] In the current IL-13 assay, the cyclic dinucleotide is added simultaneously with IL-3. The TBDMS-cGpGp likely induces SOCS-1 expression faster and thus accounts for greater inhibition of IL-13. […] While modest inhibitory activity with cGpGp was observed, evidence that cGpGp induces SOCS-1 and sometimes better than TBDMS-cGpGp at this particular time point was observed. These differences might be explained by kinetics and it may be that SOCS gene expression would be higher following TBDMS-cGpGp treatment when examined at an earlier time point.

S. pneumoniae strain D39 = assay: Mouse pneumococcal pneumonia (proposed); type: in vivo; settings: 200 nmol 24- and 48 hours prior; 1×10^5 CFU D39
[1] = type: in vitro ADME, human
Method: Commercially supplied pooled human serum (100 uL) (Cambrex Bio Science Walkersville, Inc.) was diluted in ion-exchanged water. An aliquot of the resulting human serum solution was subjected to HPLC analysis (conditions: COSMOSIL 5C18-AR-II column (4.6×200 mm); buffer A; buffer B, 80% acetonitrile in water; gradient, 0-10 min A 100%, 10-60 min A:B=100:0 to A:B=40:60 in 50 min; detection 254 nm, flow rate, 1.0 mL/min, temperature 40° C.). Separately, a 100 uM of c-di-GMP solution in human serum was prepared by adding 100 uL of a 500 uM c-di-GMP aqueous solution to a mixture of 390 uL of human serum and 10 uL of 40 mM 2-methylbenzimidazole (an internal standard for estimating the extent of decomposition of c-di-GMP) in methanol. An aliquot of the test solution was diluted immediately after the preparation solution and then heated at 100° C. for 5 min to quench activity of enzymes. The resulting test sample was subjected to HPLC analysis after 24 h treatment. Peaks that appeared in both analyses were compared. Results are based on 3 independent experiments.

[2] = system: immature DCs (iDC) and mature DCs (mDC); assay: Cytokine production by dendritic cells (sandwich ELISA of supernatants); type: cell-based, human; settings: 24 h
Method: Analysis of supernatant cytokine content was performed both on treated (c-di-GMP) or untreated saline control (NaCl) immature DCs (iDC) and mature DCs (mDC). Culture supernatants were collected after 24 h treatment and IL-1β, IL-6, IL-10, IL-12, and TNF- α contents were measured using a sandwich ELISA according to the manufacturer's instructions.

[3] = system: human colon carcinoma cells; settings: synthetic c-di-GMP; cited from earlier work
Lethality in CD1 mice = settings: 50 μl of 200 μM, after 24 h
JNK = assay: Signaling in human DCs: JNK; type: cell-based; settings: under the conditions tested
Method: Human PBMC were isolated by Ficoll density gradient centrifugation from leukopacks supplied by the Department of Transfusion Medicine (Clinical Center, National Institute of Health, Bethesda, Md.). Monocytes were purified (>95%) from human PBMC with MACS CD14 monocyte isolation kit (Miltenyi Biotech Inc., Auburn, Calif.) according to the manufacturer's instruction. DCs were generated as described previously (Yang et al., 2001). In brief, DCs were generated by incubating purified monocytes at 2×10^5/ml in RPMI 1640 containing 10% FBS, 2 mM glutamine, 25 mM HEPES, 100 U/ml penicillin, 100 ug/ml streptomycin, 50 ng/ml recombinant human GM-CSF (PeproTech, Rocky Hill, N.J.), and 50 ng/ml recombinant human IL-4 (PeproTech) at 37° C. in a CO2 (5%) incubator for 7 days. On day 3 and 5 of the incubation, half of the culture medium was replaced with pre-warmed (37° C.) fresh GM-CSF- and IL-4-containing medium. On day 7, DCs were collected, washed three times with PBS, and serum-starved for 8 hours by incubating in serum-free RPMI-1640 containing GM-CSF and IL-4 (2×10^5/ml) at 37° C. in a CO2 (5%) incubator. Subsequently, DCs (2×10^6/sample) were incubated at 37° C. in the absence or presence of c-di-GMP or GMP (Sigma, St. Louis, Mo.) at concentrations specified for 5 or 30 minutes. […]

Nc1nc(=O)c2ncn([C@@H]3OC4COP(=O)(O)O[C@H]5[C@@H](O)[C@H](n6cnc7c(=O)nc(N)[nH]c76)O[C@@H]5COP(=O)(O)OC4C3O)c2[nH]1 (stereo partly shown) [c-di-GMP, Bis(3′→5′)-cyclic diguanylic acid]
time of SOCS mRNA peak (basophils): ~18 h
SOCS-1 mRNA (basophils; 18 h treatment): induced
bacterial counts in the lungs (S. pneumoniae strain D39): decreased bacterial counts
stability in human serum [1]: stable
IL-10 expression ([2]; DCs): no major effect
production of TNF-α ([2]; iDCs, 5 μM, FIG. 3A): dramatic increase
IL-12 secretion ([2]; immature DCs): undetectable
IL-12 production ([2]; mDCs (LPS-treated), 50 μM): dramatic increase
IL-6 production ([2]; mDCs (LPS-treated), 100 μM, FIG. 3B): increase
IL-1β production ([2]; mDCs (LPS-treated), FIG. 3B): major increase
basal and growth factor induced proliferation of human colon carcinoma cells [3]: inhibits
lethality in CD1 mice (Lethality in CD1 mice): non-lethal
activation of JNK (JNK): did not activate
